Test results: ChEMBL document CHEMBL1128401, “Structure-activity relationships in the 8-amino-6,7,8,9-tetrahydro-3H-benz[e]indole ring system. 1. Effects of substituents in the aromatic system on serotonin and dopamine receptor subtypes” (J Med Chem, 1995)
Calls of active or inactive are those of the source. The rule behind the calls is not given here.

Key:
[1] = target: T1, 5-hydroxytryptamine receptor 1A (Rattus norvegicus, UniProt P19327); test: Binding affinity against 5-hydroxytryptamine 1A receptor from CHO-K1 cells, using [3H]8-OH-DPAT as the radioligand.; type: cell-based
T1 sequence (P19327 whole entry): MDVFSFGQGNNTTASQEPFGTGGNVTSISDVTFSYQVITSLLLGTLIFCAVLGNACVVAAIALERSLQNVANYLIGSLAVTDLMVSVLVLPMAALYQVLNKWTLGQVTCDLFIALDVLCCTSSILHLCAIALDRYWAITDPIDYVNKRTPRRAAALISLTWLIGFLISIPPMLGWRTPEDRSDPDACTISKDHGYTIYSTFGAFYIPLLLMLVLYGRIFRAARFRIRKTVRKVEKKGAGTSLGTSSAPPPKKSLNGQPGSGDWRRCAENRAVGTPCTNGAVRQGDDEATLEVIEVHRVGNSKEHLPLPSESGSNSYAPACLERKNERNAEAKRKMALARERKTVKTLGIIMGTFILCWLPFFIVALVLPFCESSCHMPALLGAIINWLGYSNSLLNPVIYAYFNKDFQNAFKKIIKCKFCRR

[2] = target: 5-hydroxytryptamine receptor 1B (Homo sapiens, UniProt P28222); test: Binding affinity against 5-hydroxytryptamine 1D receptor beta expressed in CHO-K1 cells, using [3H]5-HT as the radioligand.; type: cell-based; settings: read-out: Ki
[3] = target: 5-hydroxytryptamine receptor 1D (Homo sapiens, UniProt P28221); test: Binding affinity against 5-hydroxytryptamine 1D receptor alpha expressed in CHO-K1 cells, using [3H]-5-HT as the radioligand.; type: cell-based; settings: read-out: Ki
D(2) dopamine receptor [4] = target: T2, D(2) dopamine receptor (Rattus norvegicus, UniProt P61169); test: Binding affinity against Dopamine receptor D2 expressed in CHO-K1 cells, using [3H]U-86170 as the radioligand.; type: cell-based
D(3) dopamine receptor [5] = target: T3, D(3) dopamine receptor (Rattus norvegicus, UniProt P19020); test: Binding affinity against Dopamine receptor D3 expressed in CHO-K1 cells, using [3H]spiperone as the radioligand.; type: cell-based
Rattus norvegicus [6] = test: Compound was tested in vivo for DOPA accumulation in corpus striatum against reserpine-pretreated rats;I= inactive at the highest dose tested (3.1).; type: functional, organism-based
Rattus norvegicus [7] = test: The Compound was tested in vivo for DOPA accumulation in limbic system against reserpine-pretreated rats; P=significant partial reduction only at the highest dose tested (3.1).; type: functional, organism-based
Rattus norvegicus [8] = test: The Compound was tested in vivo for DOPA accumulation in hemispheres (cortex) against reserpine-pretreated rats; I=inactive at the highest dose tested (3.1).; type: functional, organism-based
Rattus norvegicus [9] = test: Bioavailability in male Sprague-Dawley rats, after the iv administration at a dose of 5.0(pmol/g/h); type: ADME, organism-based; settings: in vivo
Rattus norvegicus [10] = test: Bioavailability in male Sprague-Dawley rats, after the po administration at a dose of 40.0(pmol/g/h); type: ADME, organism-based; settings: in vivo
[11] = tmax in hours at a iv dose of 5.0(pmol/g/h).; type: ADME, organism-based; settings: in vivo
Rattus norvegicus [12] = test: The Compound was tested in vivo for DOPA accumulation in hemispheres (cortex) against reserpine-pretreated rats; P=significant partial reduction only at the highest dose tested (12.5).; type: functional, organism-based
[13] = Rat bioavailability after iv/po administration, expressed as %; type: ADME, organism-based; settings: in vivo
[14] = tmax in hours at a po dose of 40.0(pmol/g/h).; type: ADME, organism-based; settings: in vivo
Rattus norvegicus [15] = test: Compound was tested in vivo for DOPA accumulation in corpus striatum against reserpine-pretreated rats;P= significant partial reduction only at the highest dose tested (50).; type: functional, organism-based
Rattus norvegicus [16] = test: Compound was tested in vivo for 5-HTP accumulation in corpus striatum against reserpine-pretreated rats; P=significant partial reduction only at the highest dose tested (50).; type: functional, organism-based
Rattus norvegicus [17] = test: Compound was tested in vivo for 5-HTP accumulation in hemispheres (cortex) against reserpine-pretreated rats; P=significant partial reduction only at the highest dose tested (50).; type: functional, organism-based
Rattus norvegicus [18] = test: Compound was tested in vivo for 5-HTP accumulation in limbic system against reserpine-pretreated rats; P=significant partial reduction only at the highest dose tested (50).; type: functional, organism-based
Rattus norvegicus [19] = test: The Compound was tested in vivo for DOPA accumulation in limbic system against reserpine-pretreated rats; P=significant partial reduction only at the highest dose tested (50).; type: functional, organism-based
Rattus norvegicus [20] = test: The Compound was tested in vivo for DOPA accumulation in hemispheres (cortex) against reserpine-pretreated rats; P=significant partial reduction only at the highest dose tested (50).; type: functional, organism-based
D(2) dopamine receptor [21] = target: T2, D(2) dopamine receptor; settings: cho-k1
Rattus norvegicus [22] = test: Compound was tested in vivo for DOPA accumulation in corpus striatum against reserpine-pretreated rats; P=significant partial reduction only at the highest dose tested (50).; type: functional, organism-based
Rattus norvegicus [23] = test: Compound was tested in vivo for 5-HTP accumulation in hemispheres (cortex) against reserpine-pretreated rats;I= inactive at the highest dose tested (50).; type: functional, organism-based
Rattus norvegicus [24] = test: Compound was tested in vivo for 5-HTP accumulation in limbic system against reserpine-pretreated rats;I=inactive at the highest dose tested (50).; type: functional, organism-based
Rattus norvegicus [25] = test: The Compound was tested in vivo for DOPA accumulation in hemispheres (cortex) against reserpine-pretreated rats;I= inactive at the highest dose tested (50).; type: functional, organism-based
Rattus norvegicus [26] = test: Compound was tested in vivo for 5-HTP accumulation in corpus striatum against reserpine-pretreated rats;I= inactive at the highest dose tested (50).; type: functional, organism-based
Rattus norvegicus [27] = test: Bioavailability in male Sprague-Dawley rats, after the iv administration at a dose of 54.0(pmol/g/h); type: ADME, organism-based; settings: in vivo
Rattus norvegicus [28] = test: Bioavailability in male Sprague-Dawley rats, after the po administration at a dose of 10.0(pmol/g/h); type: ADME, organism-based; settings: in vivo
[29] = Bioavailability in rat plasma following iv/po dose; type: ADME, organism-based
[30] = tmax in hours at a dose of 10.0(pmol/g/h).; type: ADME
[31] = tmax in hours at a iv dose of 54.0(pmol/g/h).; type: ADME, organism-based; settings: in vivo
D(2) dopamine receptor [32] = target: T2, D(2) dopamine receptor; test: Binding affinity against Dopamine receptor D2 from CHO-K1 cells, using [3H]U-86,170 as the radioligand.; type: cell-based
D(3) dopamine receptor [33] = target: T3, D(3) dopamine receptor; test: Binding affinity against Dopamine receptor D3 from CHO-K1 cells, using [3H]spiperone as the radioligand.; type: cell-based; settings: read-out: Ki
Rattus norvegicus [34] = test: In vivo for DOPA accumulation in corpus striatum against reserpine-pretreated rats.; type: functional
Rattus norvegicus [35] = test: In vivo for 5-HTP accumulation in corpus striatum against reserpine-pretreated rats.; type: functional
Rattus norvegicus [36] = test: In vivo for 5-HTP accumulation in hemispheres (cortex) against reserpine-pretreated rats.; type: functional
Rattus norvegicus [37] = test: In vivo for 5-HTP accumulation in limbic system against reserpine-pretreated rats.; type: functional
Rattus norvegicus [38] = test: In vivo for DOPA accumulation in limbic system against reserpine-pretreated rats.; type: functional
Rattus norvegicus [39] = test: The Compound was tested in vivo for DOPA accumulation in hemispheres (cortex) against reserpine-pretreated rats;I= inactive at the highest dose (12.5); type: functional, organism-based
Rattus norvegicus [40] = test: The compound was tested in vivo for DOPA accumulation in hemispheres (cortex) against reserpine-pretreated rats;I= inactive at the highest dose tested; type: functional, organism-based
Rattus norvegicus [41] = test: The compound was tested in vivo for DOPA accumulation in limbic system against reserpine-pretreated rats;I= inactive at the highest dose tested; type: functional, organism-based
Rattus norvegicus [42] = test: compound was tested in vivo for DOPA accumulation in corpus striatum against reserpine-pretreated rats;I= inactive at the highest dose tested; type: functional, organism-based

T2 sequence (P61169 whole entry): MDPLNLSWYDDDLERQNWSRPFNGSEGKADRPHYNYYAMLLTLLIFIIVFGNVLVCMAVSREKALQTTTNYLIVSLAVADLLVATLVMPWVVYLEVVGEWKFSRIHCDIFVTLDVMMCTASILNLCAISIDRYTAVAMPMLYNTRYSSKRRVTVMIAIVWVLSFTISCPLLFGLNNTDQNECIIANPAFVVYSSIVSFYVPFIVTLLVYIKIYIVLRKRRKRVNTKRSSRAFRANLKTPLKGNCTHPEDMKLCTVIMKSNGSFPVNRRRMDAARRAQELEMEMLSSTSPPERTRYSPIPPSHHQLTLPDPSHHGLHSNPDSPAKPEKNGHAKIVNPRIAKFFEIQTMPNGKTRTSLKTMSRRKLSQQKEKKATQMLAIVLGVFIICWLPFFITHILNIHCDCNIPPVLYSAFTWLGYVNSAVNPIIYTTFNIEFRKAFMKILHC
Chain of 5-hydroxytryptamine receptor 1D (P28221 whole entry): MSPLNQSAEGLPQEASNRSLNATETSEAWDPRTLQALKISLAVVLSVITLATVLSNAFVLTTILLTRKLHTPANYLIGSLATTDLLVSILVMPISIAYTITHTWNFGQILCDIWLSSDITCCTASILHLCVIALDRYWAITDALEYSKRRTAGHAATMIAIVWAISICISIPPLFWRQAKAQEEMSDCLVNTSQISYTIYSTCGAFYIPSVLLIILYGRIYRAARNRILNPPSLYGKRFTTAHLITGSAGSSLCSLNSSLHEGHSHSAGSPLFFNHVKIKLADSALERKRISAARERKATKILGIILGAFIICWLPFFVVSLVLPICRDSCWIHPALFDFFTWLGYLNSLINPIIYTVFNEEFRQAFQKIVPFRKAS
T3 sequence (P19020 whole entry): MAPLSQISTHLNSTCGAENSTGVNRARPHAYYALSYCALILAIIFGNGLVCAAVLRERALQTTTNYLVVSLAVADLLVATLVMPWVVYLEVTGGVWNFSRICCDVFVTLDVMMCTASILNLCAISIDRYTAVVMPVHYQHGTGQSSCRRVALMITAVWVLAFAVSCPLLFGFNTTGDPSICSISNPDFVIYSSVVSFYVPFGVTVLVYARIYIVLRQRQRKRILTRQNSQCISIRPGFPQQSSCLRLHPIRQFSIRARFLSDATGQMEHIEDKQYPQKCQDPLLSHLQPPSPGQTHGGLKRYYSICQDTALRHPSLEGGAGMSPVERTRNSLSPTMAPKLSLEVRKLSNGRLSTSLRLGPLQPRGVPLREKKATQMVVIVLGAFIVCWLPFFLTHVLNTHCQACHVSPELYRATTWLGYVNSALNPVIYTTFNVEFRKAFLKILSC
Chain of 5-hydroxytryptamine receptor 1B (P28222 whole entry): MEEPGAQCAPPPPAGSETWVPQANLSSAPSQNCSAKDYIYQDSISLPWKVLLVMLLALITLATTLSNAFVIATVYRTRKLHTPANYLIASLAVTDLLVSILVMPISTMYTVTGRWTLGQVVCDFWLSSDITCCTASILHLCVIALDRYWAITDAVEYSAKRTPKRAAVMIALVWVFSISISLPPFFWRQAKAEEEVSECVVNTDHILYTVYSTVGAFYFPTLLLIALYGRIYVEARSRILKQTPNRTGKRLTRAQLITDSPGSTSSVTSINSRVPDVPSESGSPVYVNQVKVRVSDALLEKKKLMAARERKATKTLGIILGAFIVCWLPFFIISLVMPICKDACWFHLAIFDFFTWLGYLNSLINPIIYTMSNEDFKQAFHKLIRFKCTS

`CCCN(CCC)[C@@H]1CCc2ccc3[nH]cc(C#N)c3c2C1` gave a Ki [1] of 0.0008 µM, a Ki [2] of 0.026 µM and a Ki [3] of 0.0067 µM. The Ki (D(2) dopamine receptor [4]) was 0.022 µM, the Ki (D(3) dopamine receptor [5]) was 0.045 µM and the ED50 (Rattus norvegicus [6]) was “inactive”. For the same compound, the ED50 (Rattus norvegicus [7]) was “Weak activity” and the ED50 (Rattus norvegicus [8]) was “inactive”.

In the case of `CCCN(CCC)C1CCc2ccc3[nH]cc(C#N)c3c2C1` (stereo not drawn), the Ki [1] is reported as 0.0004 µM, the Ki [2] is reported as 0.038 µM and the Ki [3] is reported as 0.0075 µM. The AUC (Rattus norvegicus [9]) was 1115 pM ml-1, the AUC (Rattus norvegicus [10]) was 4849 pM ml-1 and the Tmax [11] was 2 h. The Ki (D(2) dopamine receptor [4]) was 0.024 µM, the Ki (D(3) dopamine receptor [5]) was 0.043 µM and the ED50 (Rattus norvegicus [12]) was “Weak activity”. The bioavailability [13] was 54% and the T max [14] was 135 h.

For `CCCN(CCC)C1CCc2ccc3[nH]cc(C(=O)C(N)=O)c3c2C1` (stereo not drawn), the Ki [1] was 0.024 µM, the Ki [2] was 0.552 µM and the Ki [3] was 0.087 µM. The ED50 (Rattus norvegicus [15]) was “Weak activity”, the ED50 (Rattus norvegicus [16]) was “Weak activity” and the ED50 (Rattus norvegicus [17]) was “Weak activity”. The ED50 (Rattus norvegicus [18]) was “Weak activity”, the ED50 (Rattus norvegicus [19]) was “Weak activity” and the ED50 (Rattus norvegicus [20]) was “Weak activity”. For the same compound, the Ki (D(2) dopamine receptor [21]) was “Not Active”.

For `CCCN(CCC)C1CCc2ccc3c(c2C1)N(C=O)CC3` (stereo not drawn), the ED50 (Rattus norvegicus [22]) was “Weak activity”, the ED50 (Rattus norvegicus [23]) was “inactive” and the ED50 (Rattus norvegicus [24]) was “inactive”. For the same compound, the ED50 (Rattus norvegicus [25]) was “inactive”, the ED50 (Rattus norvegicus [19]) was “Weak activity” and the ED50 (Rattus norvegicus [26]) was “inactive”.

`CCCN(CCC)C1CCc2cc(F)c3[nH]cc(C#N)c3c2C1` (stereo not drawn) gave a Ki [1] of 0.0023 µM, a Ki [2] of 0.121 µM and a Ki [3] of 0.0086 µM. For the same compound, the AUC (Rattus norvegicus [27]) was 238 pM ml-1, the AUC (Rattus norvegicus [28]) was 48 pM ml-1 and the bioavailability [29] was 8.1%. The Tmax [30] was 33 h, the Tmax [31] was 2 h and the Ki (D(2) dopamine receptor [32]) was 0.072 µM. It also gave a Ki (D(3) dopamine receptor [33]) of 0.063 µM, an ED50 (Rattus norvegicus [34]) of 2.1 µmol/kg and an ED50 (Rattus norvegicus [35]) of 0.43 µmol/kg. It also gave an ED50 (Rattus norvegicus [36]) of 0.46 µmol/kg, an ED50 (Rattus norvegicus [37]) of 0.52 µmol/kg and an ED50 (Rattus norvegicus [38]) of 0.55 µmol/kg. The ED50 (Rattus norvegicus [39]) was “inactive”.

`CCCN(CCC)[C@@H]1CCc2ccc3[nH]cc(C=O)c3c2C1` gave a Ki [2] of 0.21 µM, a Ki [3] of 0.031 µM and a Ki (D(2) dopamine receptor [32]) of 0.017 µM. The Ki (D(3) dopamine receptor [33]) was 0.051 µM, the ED50 (Rattus norvegicus [40]) was “inactive” and the ED50 (Rattus norvegicus [41]) was “inactive”. For the same compound, the ED50 (Rattus norvegicus [42]) was “inactive”.
